According to US20240116856A1 (Young BioPharma, LLC, priority 2020, published 2024):
≈ marks a conversion by molar mass, not a printed value. Entries after “also recorded” stand apart in the source; their conditions may differ. Read-outs that look alike come from different tables or passages of the source.

Key:
[1] = test system: Src protein activation in MDA-MB-231 cells; assay: Cancer cell immunocytochemistry assay, Phospho-Src (Y416), MDA-MB-231; format: cell-based, human; settings: YB-1 15 μM, capsaicin 50 μM, 1-6 h
Description: (§1) Human cancer cells (15,000 cells/well) in 96 well half area microplate (Cat #3882, Corning) were incubated overnight at 37° C., then compounds or DMSO control were added to the cell culture and incubated at 37° C. for 1-6 h. The cells were sequentially fixed with 4% formalin, permeabilized with 0.5% Triton X-100, blocked with 5% BSA in PBS, incubated with Human Phospho-Src (Y416) Antibody (Cat #MAB2685, R&D Systems) at rt for 2 h, incubated with the secondary antibody Goat Ant-Rabbit IgG H&L (Alexa Fluor 488) (Cat #ab150077, abeam) for 45 min, and incubated with DAPI (Cat #D9542, Sigma-Aldrich) for 5 min. Finally, the cells were washed and covered with PBS. The cell images were visualized on an inverted fluorescence microscope (Leica DMIL Fluorescent Inverted Microscope with Digital Camera, Leica Microsystems). Pictures were taken [FIGS. 14A-C. Green: Human Phospho-Src (Y416), the activated form of the Src protein; Blue: DAPI (stain nucleus of cell)]. The fluorescence intensity values from 5 random cells were averaged, subtracted by the background value (area between cells) and the blank value [the blank control without the Human Phospho-Src (Y416) Antibody], then plotted as percentage against the DMSO control to indicate the effects of compound treatment on the cellular Src kinase phosphorylation levels in the cancer cells (FIGS. 15A-D).

[2] = test system: MDA-MB-231 breast cancer tumors; settings: literature; cited from earlier work
Aqueous solubility = format: physicochemical
Description: Chemical analysis and solubility tests were performed blind to the identity of the samples. Intermediates and final analogs were analyzed by NMR (JEOL 400 MHz NMR) and HPLC/MS (Waters Acquity UPLC with SQD Mass Spec) to confirm structures and purity. Final compounds were purified to achieve >95% purity based on HPLC analysis.

[3] = SubQ; YB-16 3, 6 mg/kg; capsaicin 2 mg/kg
[4] = Scoville Heat Units, cited from earlier work
NCI-H460 = assay: Human cancer cell growth inhibition assay (ATP assay), NCI-H460; format: cell-based; settings: Homo sapiens, NCI-H460, 96 h; 4 days; Means±SEM from three independent experiments; read-out: NCl-H460, IC50
[5] = intraplantar; for reduction of first phase spontaneous behavior: 5-10 g dose
human TRPA1 = target: T1, human TRPA1 (Homo sapiens, UniProt O75762); assay: In vitro Ca2+ flux counter-screen in human TRPA1 overexpressing cells; format: cell-based; settings: counter-screen; read-out: TRPA1 EC50
T1 construct: expressed in transfected cells; host or cells: overexpressing cells

TRPV1 = target: T2, TRPV1 (Mus musculus, UniProt Q704Y3); assay: Ca2+ imaging of primary mouse dorsal root ganglion (DRG) neurons, TRPV1 desensitization; format: cell-based; settings: then capsaicin 0.5 μM
T2 construct: DRG was isolated from male and female mice expressing GCaMP6f in neurons; endogenous in cells; host or cells: dissociated primary DRG neurons from GCaMP6f-expressing mice

[6] = test system: Src protein activation in NCI-H460 cells; assay: Cancer cell immunocytochemistry assay, Phospho-Src (Y416), NCI-H460; format: cell-based, human; settings: YB-1 15 μM, capsaicin 50 μM, 1-6 h
Description: as §1

human TRPV3 = target: T3, human TRPV3 (Homo sapiens, UniProt Q8NET8); assay: In vitro Ca2+ flux counter-screen in human TRPV3 overexpressing cells; format: cell-based; settings: counter-screen; read-out: TRPV3 EC50
T3 construct: expressed in transfected cells; host or cells: overexpressing cells
T3 sequence (Q8NET8 1-790): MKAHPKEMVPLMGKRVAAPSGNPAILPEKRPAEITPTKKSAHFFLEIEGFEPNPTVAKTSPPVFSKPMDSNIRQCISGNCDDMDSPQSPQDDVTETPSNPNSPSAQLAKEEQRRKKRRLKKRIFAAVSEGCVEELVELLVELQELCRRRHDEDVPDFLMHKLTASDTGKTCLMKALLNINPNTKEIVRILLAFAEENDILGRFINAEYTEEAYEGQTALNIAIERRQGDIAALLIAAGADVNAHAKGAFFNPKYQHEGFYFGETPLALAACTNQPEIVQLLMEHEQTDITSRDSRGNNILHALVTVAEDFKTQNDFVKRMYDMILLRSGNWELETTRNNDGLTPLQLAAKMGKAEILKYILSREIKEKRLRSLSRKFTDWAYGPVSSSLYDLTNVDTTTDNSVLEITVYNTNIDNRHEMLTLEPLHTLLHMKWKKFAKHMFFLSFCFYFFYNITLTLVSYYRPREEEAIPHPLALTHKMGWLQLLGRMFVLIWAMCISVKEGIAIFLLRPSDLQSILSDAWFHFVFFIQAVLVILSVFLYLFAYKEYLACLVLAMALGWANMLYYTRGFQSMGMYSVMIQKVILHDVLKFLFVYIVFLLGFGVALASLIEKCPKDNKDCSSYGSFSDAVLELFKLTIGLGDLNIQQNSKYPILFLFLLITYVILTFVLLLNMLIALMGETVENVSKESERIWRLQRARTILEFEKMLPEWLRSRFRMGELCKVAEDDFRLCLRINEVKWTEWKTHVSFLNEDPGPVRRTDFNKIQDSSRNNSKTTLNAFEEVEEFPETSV

OVCAR-8 = assay: Human cancer cell growth inhibition assay (ATP assay), OVCAR-8; format: cell-based; settings: Homo sapiens, OVCAR-8, 96 h; 4 days; Means±SEM from three independent experiments; read-out: OVCAR-8, IC50
[7] = Rodent eye wiping assay (pungency)
[8] = background; cited from earlier work
[9] = first treatment capsaicin 0.5 μM, YB-11 0.5 μM or YB-16 1.0 μM, paired t-test

T2 sequence (Q704Y3 whole entry): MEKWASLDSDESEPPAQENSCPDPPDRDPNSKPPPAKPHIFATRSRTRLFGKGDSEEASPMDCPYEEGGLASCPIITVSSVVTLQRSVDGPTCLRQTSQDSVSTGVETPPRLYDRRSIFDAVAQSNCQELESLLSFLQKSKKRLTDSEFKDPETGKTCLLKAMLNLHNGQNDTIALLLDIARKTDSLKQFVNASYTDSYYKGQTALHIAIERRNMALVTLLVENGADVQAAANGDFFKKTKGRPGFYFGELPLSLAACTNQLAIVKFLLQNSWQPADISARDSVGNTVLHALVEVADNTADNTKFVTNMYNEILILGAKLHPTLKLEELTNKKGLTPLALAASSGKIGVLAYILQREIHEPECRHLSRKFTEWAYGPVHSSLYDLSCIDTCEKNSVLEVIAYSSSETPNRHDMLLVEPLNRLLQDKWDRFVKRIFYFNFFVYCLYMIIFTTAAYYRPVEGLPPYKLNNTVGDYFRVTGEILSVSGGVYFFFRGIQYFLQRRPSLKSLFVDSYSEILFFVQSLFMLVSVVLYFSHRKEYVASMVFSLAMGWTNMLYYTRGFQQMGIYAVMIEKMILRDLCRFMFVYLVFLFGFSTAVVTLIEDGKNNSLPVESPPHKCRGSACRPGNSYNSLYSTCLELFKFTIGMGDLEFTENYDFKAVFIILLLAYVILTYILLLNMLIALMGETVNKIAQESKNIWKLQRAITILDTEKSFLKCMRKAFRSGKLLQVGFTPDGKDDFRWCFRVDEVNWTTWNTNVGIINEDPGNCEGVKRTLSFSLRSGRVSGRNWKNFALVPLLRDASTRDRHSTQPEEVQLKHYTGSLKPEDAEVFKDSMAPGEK
T1 sequence (O75762 whole entry): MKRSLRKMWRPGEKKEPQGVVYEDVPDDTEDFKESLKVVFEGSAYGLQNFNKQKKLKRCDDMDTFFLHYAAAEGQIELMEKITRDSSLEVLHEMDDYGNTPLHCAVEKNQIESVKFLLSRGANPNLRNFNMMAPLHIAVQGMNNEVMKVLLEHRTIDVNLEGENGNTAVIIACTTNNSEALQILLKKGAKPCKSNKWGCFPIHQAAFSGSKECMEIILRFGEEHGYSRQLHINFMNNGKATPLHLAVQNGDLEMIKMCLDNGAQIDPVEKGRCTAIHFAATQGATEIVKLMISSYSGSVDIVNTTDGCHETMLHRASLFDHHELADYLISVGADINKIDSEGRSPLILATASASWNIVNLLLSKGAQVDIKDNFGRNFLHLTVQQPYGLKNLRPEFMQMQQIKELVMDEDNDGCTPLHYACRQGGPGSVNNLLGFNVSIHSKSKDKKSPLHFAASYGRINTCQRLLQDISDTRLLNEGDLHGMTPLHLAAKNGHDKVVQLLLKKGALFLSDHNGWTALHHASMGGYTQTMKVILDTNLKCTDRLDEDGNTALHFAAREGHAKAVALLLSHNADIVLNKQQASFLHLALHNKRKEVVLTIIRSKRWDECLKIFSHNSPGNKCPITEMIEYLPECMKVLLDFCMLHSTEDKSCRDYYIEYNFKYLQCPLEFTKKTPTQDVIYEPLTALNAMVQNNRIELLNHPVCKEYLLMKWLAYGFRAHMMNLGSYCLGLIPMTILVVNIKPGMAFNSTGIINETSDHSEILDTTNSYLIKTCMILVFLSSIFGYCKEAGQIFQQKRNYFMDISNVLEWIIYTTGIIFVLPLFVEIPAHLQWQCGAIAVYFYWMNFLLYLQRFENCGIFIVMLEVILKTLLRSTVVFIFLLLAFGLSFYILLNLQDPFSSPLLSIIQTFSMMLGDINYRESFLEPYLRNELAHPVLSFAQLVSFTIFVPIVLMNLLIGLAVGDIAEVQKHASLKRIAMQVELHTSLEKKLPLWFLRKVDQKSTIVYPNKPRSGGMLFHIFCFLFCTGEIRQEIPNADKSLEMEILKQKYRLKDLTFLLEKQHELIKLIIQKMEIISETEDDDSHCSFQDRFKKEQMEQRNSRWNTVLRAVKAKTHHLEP

Structure (SMILES): COc1cc(CNC(=O)CCCC/C=C/C(C)C)ccc1O [Capsaicin, trans-8-methyl-N-vanillyl-6-nonenamide, reference compound]
- cellular Src kinase phosphorylation levels [1]: time-dependently reduced the cellular Src kinase phosphorylation levels
- decrease of tumor size [2]: 50%
- solubility (Aqueous solubility): 13 µg/mL (≈ 42.6 µM)
- effect on hot-plate reaction [3]: reduced hotplate sensitivity compared to vehicle
- Pungency (SHU) [4]: 16,000,000 SHU
- Pungency (SHU) ([4]; listed as capsaicin): 16.0 million
- IC50 (NCI-H460): 200 ± 65 µM
- maximum tolerated dose (MTD) [5]: 5 g
- reduction of first phase spontaneous behavior ([5]; 2 hr prior to formalin): 44% reduction in first phase pain
- reduction of first phase spontaneous behavior ([5]; 2 hr prior to formalin, listed as capsaicin): 44%
- animals with sedation ([5]; 10 g dosing group): 20%
- effect in the second phase of the formalin test ([5]; 2 hr prior to formalin): not statistically significant
- effect on formalin spontaneous pain-like behavior ([5]; 2 hr prior to formalin): reduce spontaneous pain-like behavior in a dose-related manner
- animal death and sedation in formalin test ([5]; listed as capsaicin): One of the capsaicin treated animals died
- EC50 (human TRPA1): > 10 µM
- TRPV1-sensitive neurons showing desensitization (TRPV1; first treatment 0.5 μM): 96%
- area under the curve of the Ca2+ signal of the second (capsaicin) application (TRPV1; [9]): statistically significant reduction; also recorded: significantly reduced
- max Ca2+ signal of the second (capsaicin) application (TRPV1; [9]): statistically significant reduction; also recorded: significantly reduced
- cellular Src kinase phosphorylation levels [6]: time-dependently reduced the cellular Src kinase phosphorylation levels
- EC50 (human TRPV3): > 10 µM
- IC50 (OVCAR-8): 234 ± 31 µM
- MPP ([7]; Moderate Pain-Producing Potency concentration: dose producing 10 normalized eye wipes): 0.041 mg/mL
- Pungency RPP ([7]; Relative Pain-Producing Potency with Capsaicin set to 100): 100
- Pungency RPP ([7]; Table 3 comparison, Capsaicin set to 100): 100
- solubility in water [8]: 13 µg/mL (≈ 42.6 µM)
